# Measurements: patent US20200024278A1, “COMPOSITION COMPRISING ANTIBIOTIC COMPOUND AND AN HETEROCYCLIC COMPOUND AND THEIR USE IN PREVENTING OR TREATING BACTERIAL INFECTIONS” (MUTABILIS, priority 2016, published 2020)
# Read-outs that look alike come from different tables or passages of the source.
# Key:
# Experiment in all cases: MIC, broth microdilution (CLSI), substance alone or ATB combined with compound at 4 or 8 μg/mL
# ECO 190317 = assay type: cell-based, E. coli; conditions: ECO 190317; for MIC: Escherichia coli
# Method in brief: (§1)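 CLSI broth microdilution in cation-adjusted Mueller-Hinton broth, 5·10^5 CFU/mL log-phase inoculum, 16-20 h at 35 °C in ambient air. Fosfomycin assays supplemented with 25 μg/ml glucose-6-phosphate.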
# ECO UFR39 = assay type: cell-based, E. coli; conditions: ECO UFR39; for MIC: Escherichia coli
# Method in brief: as §1
# KPN 6299 = assay type: cell-based, K. pneumoniae; conditions: for MIC: Klebsiella pneumoniae
# Method in brief: as §1
# KPN BAA-1898 = assay type: cell-based, K. pneumoniae; conditions: KPN BAA-1898; for MIC: Klebsiella pneumoniae, BAA1898
# Method in brief: as §1
# KPN UFR42 = assay type: cell-based, K. pneumoniae; conditions: KPN UFR42
# Method in brief: as §1
# ECL P99 = assay type: cell-based, E. cloacae; conditions: ECL P99; with Example 1 @8 μg/ml
# Method in brief: as §1
# [1] = antibiotic alone, read-out: MIC ATB alone
compound,measurement,setting,value
"CC1(C)S[C@@H]2[C@H](NC(=O)[C@H](N)c3ccc(O)cc3)C(=O)N2[C@H]1C(=O)O [AMX, Amoxicillin, reference compound]",MIC ATB combined with Example 1 @8 μg/ml,ECO 190317; with Example 1 @8 μg/ml,<0.031 µg/mL
same,MIC ATB combined with Example 1 @8 μg/ml,ECO 190317; with Example 1 at 8 μg/ml,<0.031 µg/mL
same,MIC ATB combined with Example 7 @8 μgml,ECO 190317; with Example 7 at 8 μg/ml,<0.031 µg/mL
same,MIC ATB combined with Example 9 @4 μg/ml,ECO 190317; with Example 9 @4 μg/ml,<0.031 µg/mL
same,MIC ATB combined with Example 9 @4 μg/ml,ECO 190317; with Example 9 at 4 μg/ml,<0.031 µg/mL
same,MIC ATB combined with Example 11 @8 μg/ml,ECO 190317; with Example 11 at 8 μg/ml,<0.031 µg/mL
same,MIC ATB combined with Example 12 @8 μg/ml,ECO 190317; with Example 12 at 8 μg/ml,<0.031 µg/mL
same,MIC ATB combined with Example 13 @8 μg/ml,ECO 190317; with Example 13 at 8 μg/ml,<0.031 µg/mL
same,MIC ATB combined with Example 14 @8 μg/ml,ECO 190317; with Example 14 at 8 μg/ml,<0.031 µg/mL
same,MIC ATB combined with Example 15 @4 μgml,ECO 190317; with Example 15 at 4 μg/ml,<0.031 µg/mL
same,MIC ATB combined with Example 16 @4 μg/ml,ECO 190317; with Example 16 at 4 μg/ml,<0.031 µg/mL
same,MIC,ECO 190317; [1],> 1020 µg/mL
same,MIC,"ECO 190317; substance alone, read-out: MIC",> 1020 µg/mL
same,MIC ATB combined with Example 1 @8 μg/ml,ECO UFR39; with Example 1 @8 μg/ml,<0.031 µg/mL
same,MIC ATB combined with Example 1 @8 μg/ml,ECO UFR39; with Example 1 at 8 μg/ml,<0.031 µg/mL
same,MIC ATB combined with Example 7 @8 μgml,ECO UFR39; with Example 7 at 8 μg/ml,<0.031 µg/mL
same,MIC ATB combined with Example 9 @4 μg/ml,ECO UFR39; with Example 9 @4 μg/ml,<0.031 µg/mL
same,MIC ATB combined with Example 9 @4 μg/ml,ECO UFR39; with Example 9 at 4 μg/ml,<0.031 µg/mL
same,MIC ATB combined with Example 11 @8 μg/ml,ECO UFR39; with Example 11 at 8 μg/ml,<0.031 µg/mL
same,MIC ATB combined with Example 12 @8 μg/ml,ECO UFR39; with Example 12 at 8 μg/ml,<0.031 µg/mL
same,MIC ATB combined with Example 13 @8 μg/ml,ECO UFR39; with Example 13 at 8 μg/ml,<0.031 µg/mL
same,MIC ATB combined with Example 14 @8 μg/ml,ECO UFR39; with Example 14 at 8 μg/ml,<0.031 µg/mL
same,MIC ATB combined with Example 15 @4 μgml,ECO UFR39; with Example 15 at 4 μg/ml,<0.031 µg/mL
same,MIC ATB combined with Example 16 @4 μg/ml,ECO UFR39; with Example 16 at 4 μg/ml,<0.031 µg/mL
same,MIC,ECO UFR39; [1],> 1020 µg/mL
same,MIC,"ECO UFR39; substance alone, read-out: MIC",> 1020 µg/mL
same,MIC,KPN 6299; [1],> 1020 µg/mL
same,MIC,"KPN 6299; substance alone, read-out: MIC",> 1020 µg/mL
same,MIC ATB combined with Example 1 @8 μg/ml,KPN 6299; with Example 1 @8 μg/ml,>32 µg/mL
same,MIC ATB combined with Example 1 @8 μg/ml,KPN 6299; with Example 1 at 8 μg/ml,>32 µg/mL
same,MIC ATB combined with Example 7 @8 μgml,KPN 6299; with Example 7 at 8 μg/ml,0.5 µg/mL
same,MIC ATB combined with Example 9 @4 μg/ml,KPN 6299; with Example 9 @4 μg/ml,<=0.5 μg/mL
same,MIC ATB combined with Example 9 @4 μg/ml,KPN 6299; with Example 9 at 4 μg/ml,<0.031 µg/mL
same,MIC ATB combined with Example 11 @8 μg/ml,KPN 6299; with Example 11 at 8 μg/ml,<0.031 µg/mL
same,MIC ATB combined with Example 12 @8 μg/ml,KPN 6299; with Example 12 at 8 μg/ml,<0.031 µg/mL
same,MIC ATB combined with Example 13 @8 μg/ml,KPN 6299; with Example 13 at 8 μg/ml,2 µg/mL
same,MIC ATB combined with Example 14 @8 μg/ml,KPN 6299; with Example 14 at 8 μg/ml,<0.031 µg/mL
same,MIC ATB combined with Example 15 @4 μgml,KPN 6299; with Example 15 at 4 μg/ml,<0.031 µg/mL
same,MIC ATB combined with Example 16 @4 μg/ml,KPN 6299; with Example 16 at 4 μg/ml,<0.031 µg/mL
same,MIC ATB combined with Example 1 @8 μg/ml,KPN BAA-1898; with Example 1 @8 μg/ml,>32 µg/mL
same,MIC ATB combined with Example 1 @8 μg/ml,KPN BAA-1898; with Example 1 at 8 μg/ml,>32 µg/mL
same,MIC ATB combined with Example 7 @8 μgml,KPN BAA-1898; with Example 7 at 8 μg/ml,>32 µg/mL
same,MIC ATB combined with Example 9 @4 μg/ml,KPN BAA-1898; with Example 9 @4 μg/ml,<0.031 µg/mL
same,MIC ATB combined with Example 9 @4 μg/ml,KPN BAA-1898; with Example 9 at 4 μg/ml,<0.031 µg/mL
same,MIC ATB combined with Example 11 @8 μg/ml,KPN BAA-1898; with Example 11 at 8 μg/ml,<0.031 µg/mL
same,MIC ATB combined with Example 12 @8 μg/ml,KPN BAA-1898; with Example 12 at 8 μg/ml,<0.031 µg/mL
same,MIC ATB combined with Example 13 @8 μg/ml,KPN BAA-1898; with Example 13 at 8 μg/ml,>32 µg/mL
same,MIC ATB combined with Example 14 @8 μg/ml,KPN BAA-1898; with Example 14 at 8 μg/ml,<0.031 µg/mL
same,MIC ATB combined with Example 15 @4 μgml,KPN BAA-1898; with Example 15 at 4 μg/ml,<0.031 µg/mL
same,MIC ATB combined with Example 16 @4 μg/ml,KPN BAA-1898; with Example 16 at 4 μg/ml,<0.031 µg/mL
same,MIC,KPN BAA-1898; [1],> 1020 µg/mL
same,MIC,"KPN BAA-1898; substance alone, read-out: MIC",> 1020 µg/mL
same,MIC ATB combined with Example 1 @8 μg/ml,KPN UFR42; with Example 1 @8 μg/ml,>32 µg/mL
same,MIC ATB combined with Example 1 @8 μg/ml,KPN UFR42; with Example 1 at 8 μg/ml,>32 µg/mL
same,MIC ATB combined with Example 7 @8 μgml,KPN UFR42; with Example 7 at 8 μg/ml,>32 µg/mL
same,MIC ATB combined with Example 9 @4 μg/ml,KPN UFR42; with Example 9 @4 μg/ml,>32 µg/mL
same,MIC ATB combined with Example 9 @4 μg/ml,KPN UFR42; with Example 9 at 4 μg/ml,>32 µg/mL
same,MIC ATB combined with Example 11 @8 μg/ml,KPN UFR42; with Example 11 at 8 μg/ml,<0.031 µg/mL
same,MIC ATB combined with Example 12 @8 μg/ml,KPN UFR42; with Example 12 at 8 μg/ml,<0.031 µg/mL
same,MIC ATB combined with Example 13 @8 μg/ml,KPN UFR42; with Example 13 at 8 μg/ml,>32 µg/mL
same,MIC ATB combined with Example 14 @8 μg/ml,KPN UFR42; with Example 14 at 8 μg/ml,<0.031 µg/mL
same,MIC ATB combined with Example 15 @4 μgml,KPN UFR42; with Example 15 at 4 μg/ml,<0.031 µg/mL
same,MIC ATB combined with Example 16 @4 μg/ml,KPN UFR42; with Example 16 at 4 μg/ml,<0.031 µg/mL
same,MIC,"KPN UFR42; Klebsiella pneumoniae, antibiotic alone, read-out: MIC ATB alone",> 256 µg/mL
same,MIC ATB combined with Example 1 @8 μg/ml,ECL P99,<0.031 µg/mL
